Patent US7868003B2, “Substituted 4-phenyltetrahydroisoquinolines, pharmaceutical compositions comprising them and therapeutic methods for their use” (Sanofi-Aventis, priority 2005, dated 2011)
Counter-ions that a name gives are not always drawn.

What follows are molecules tested against T1, sodium-proton exchanger subtype 3 (NHE3) (Homo sapiens, UniProt P48764) (assay: recovery of intracellular pH (pHi) of LAP1 cells stably expressing NHE3 after acidification (BCECF, FLIPR)). Details: pH recovery in percent of maximum recovery, XLFit, read-out: IC50 (inhibitory action on the NHE3).
T1 construct: expressed in transfected cells
T1 sequence (P48764 26-834): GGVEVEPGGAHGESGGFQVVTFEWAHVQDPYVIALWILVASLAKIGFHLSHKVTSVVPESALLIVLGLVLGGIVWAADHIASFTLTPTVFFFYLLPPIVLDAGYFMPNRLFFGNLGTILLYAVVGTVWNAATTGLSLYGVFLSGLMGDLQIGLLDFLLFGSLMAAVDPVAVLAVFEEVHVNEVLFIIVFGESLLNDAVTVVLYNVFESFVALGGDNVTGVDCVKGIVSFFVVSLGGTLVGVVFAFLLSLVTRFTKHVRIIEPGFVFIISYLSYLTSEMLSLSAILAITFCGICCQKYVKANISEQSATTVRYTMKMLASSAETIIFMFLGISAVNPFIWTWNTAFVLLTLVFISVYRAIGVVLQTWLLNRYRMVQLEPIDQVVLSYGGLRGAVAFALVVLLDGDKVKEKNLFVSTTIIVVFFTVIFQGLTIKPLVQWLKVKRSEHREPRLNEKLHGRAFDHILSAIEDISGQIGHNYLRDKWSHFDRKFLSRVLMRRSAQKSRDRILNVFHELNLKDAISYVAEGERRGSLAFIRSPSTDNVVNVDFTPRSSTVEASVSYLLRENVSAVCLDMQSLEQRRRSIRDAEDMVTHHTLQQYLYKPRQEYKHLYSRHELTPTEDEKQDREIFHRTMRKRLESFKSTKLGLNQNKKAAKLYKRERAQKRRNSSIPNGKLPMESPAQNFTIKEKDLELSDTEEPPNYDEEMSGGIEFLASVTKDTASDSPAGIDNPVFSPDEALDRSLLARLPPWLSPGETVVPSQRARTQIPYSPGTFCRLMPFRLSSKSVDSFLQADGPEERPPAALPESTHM
Format: cell-based
Description: In this test, the recovery in the intracellular pH (pHi) of LAP1 cells, which stably express the sodium-proton exchanger subtype 3 (NHE3), after an acidification was determined. This recovery sets in even under bicarbonate-free conditions in the case of functioning NHE3. To this end, the pHi was determined with the pH-sensitive fluorescent dye BCECF (Molecular Probes, Eugene, Oreg., USA; the precursor BCECF-AM is used). The cells were first incubated with BCECF (5 μM BCECF-AM) in NH4Cl buffer (NH4Cl buffer: 115 mM cholineCl, 20 mM NH4Cl, 5 mM KCl, 1 mM CaCl2, 1 mM MgCl2, 20 mM Hepes, 5 mM glucose; a pH of 7.4 is established with 1 M KOH). The intracellular acidification was induced by washing the cells incubated in NH4Cl buffer with NH4Cl-free buffer (133.8 mM choline chloride, 4.7 mM KCl, 1.25 mM CaCl2, 1.25 mM MgCl2, 0.97 mM K2HPO4, 0.23 mM KH2PO4, 5 mM Hepes, 5 mM glucose; a pH of 7.4 is established with 1 M KOH). After the washing operation, 90 μl of the NH4Cl-free buffer were left on the cells. The pH recovery was started by the addition of 90 μl of Na^+-containing buffer (133.8 mM NaCl, 4.7 mM KCl, 1.25 mM CaCl2, 1.25 mM MgCl2, 0.97 mM Na2HPO4, 0.23 mM NaH2PO4, 10 mM Hepes, 5 mM glucose; a pH of 7.4 is established with 1 M NaOH) in the analytical instrument (FLIPR, “Fluorometric Imaging Plate Reader”, Molecular Devices, Sunnyvale, Calif., USA). The BCECF fluorescence was determined at an excitation wavelength of 498 nm and the FLIPR emission filter 1 (band gap from 510 to 570 nm). The subsequent changes in fluorescence were registered for two minutes as a measure of the pH recovery. For the calculation of the NHE3-inhibitory potential of the tested substances, the cells were tested first in buffers in which full pH recovery, or none at all, took place. For full pH recovery (100%), the cells were incubated in Na^+-containing buffer (see above), and Na^+-free buffer for the determination of the 0% value (see above). The substances to be tested were made up in Na^+-containing buffer. The recovery in the intracellular pH at each tested concentration of a substance was expressed in percent of the maximum recovery. From the percentages of the pH recovery, the IC50 value of the particular substance for the NHE3 was calculated by means of the program XLFit (idbs, Surrey, UK).

SMILES | IC50 [nM]
CSCCC1NC(=O)N(c2ccccc2[C@@H]2CN(C)Cc3c(Cl)cc(Cl)cc32)C1=O (mixture of isomers) [Example 57, (R and S)-3-[2-((R)-6,8-Dichloro-2-methyl-1,2,3,4-tetrahydroisoquinolin-4-yl)phenyl]-5-(2-methylsulfanylethyl)imidazolidine-2,4-dione trifluoroacetic acid salt] | 1400
CN1Cc2c(Cl)cc(Cl)cc2[C@H](c2ccc(N3C(=O)CCC3=O)cc2)C1 [Example 14] | 119
CN1Cc2c(Cl)cc(Cl)cc2[C@H](c2ccc(N3C(=O)CCCC3=O)cc2)C1 [Example 16] | 222
CN1Cc2c(Cl)cc(Cl)cc2[C@H](c2ccccc2-n2cc[nH]c2=O)C1 [Example 40, 1-[2-((R)-6,8-Dichloro-2-methyl-1,2,3,4-tetrahydroisoquinolin-4-yl)phenyl]-1,3-dihydroimidazol-2-one hydrochloride] | 131
CN1Cc2c(Cl)cc(Cl)cc2[C@H](c2ccccc2N2C(=O)CSC2=O)C1 [Example 42, 3-[2-((R)-6,8-Dichloro-2-methyl-1,2,3,4-tetrahydroisoquinolin-4-yl)phenyl]-thiazolidine-2,4-dione] | 69
CN1Cc2c(Cl)cc(Cl)cc2[C@H](c2ccccc2N2C(=O)COCC2=O)C1 [Example 44, 4-[2-((R)-6,8-Dichloro-2-methyl-1,2,3,4-tetrahydroisoquinolin-4-yl)phenyl]-morpholine-3,5-dione trifluoroacetic acid salt] | 220
CN1Cc2c(Cl)cc(Cl)cc2[C@H](c2ccccc2N2CCCS2(=O)=O)C1 [Example 51, (R)-6,8-Dichloro-4-[2-(1,1-dioxo-1-λ^6-isothiazolidin-2-yl)phenyl]-2-methyl-1,2,3,4-tetrahydroisoquinoline hydrochloride] | 141
CN1CC(=O)N(c2ccccc2[C@@H]2CN(C3CC3)Cc3c(Cl)cc(Cl)cc32)C1=O [Example 55, 3-[2-((R)-6,8-Dichloro-2-cyclopropyl-1,2,3,4-tetrahydroisoquinolin-4-yl)-phenyl]-1-methylimidazolidine-2,4-dione hydrochloride] | 120
CN1Cc2c(Br)cc(Cl)cc2C(c2ccccc2N2CCCC2=O)C1 (stereo not drawn) [Example 64, 1-[2-(8-Bromo-6-chloro-2-methyl-1,2,3,4-tetrahydroisoquinolin-4-yl)-phenyl]pyrrolidin-2-one] | 250

Continued by falling IC50, values first:

IC50 [nM] | SMILES
29200 | CN1Cc2c(Cl)cc(Cl)cc2[C@@H](c2ccccc2N2C(=O)CCC2=O)C1 [Example 34]
12300 | O=C1CCC(=O)N1c1ccccc1[C@@H]1CNCc2c(Cl)cc(Cl)cc21 [Example 52, 1-[2-((R)-6,8-Dichloro-1,2,3,4-tetrahydroisoquinolin-4-yl)phenyl]-pyrrolidine-2,5-dione trifluoroacetic acid salt]
7400 | CC(C)CC1NC(=O)N(c2ccccc2[C@@H]2CN(C)Cc3c(Cl)cc(Cl)cc32)C1=O (stereo partly drawn) [Example 58]
2590 | CN1Cc2c(Cl)cc(Cl)cc2C(c2ccc(N3CCNS3(=O)=O)cc2)C1 (stereo not drawn) [Example 8, 6,8-Dichloro-4-[4-(1,1-dioxo-1-λ^6-[1,2,5]thiadiazolidin-2-yl)phenyl]-2-methyl-1,2,3,4-tetrahydroisoquinoline]
1200 | CC1CC(C)C(=O)N(c2ccccc2[C@@H]2CN(C)Cc3c(Cl)cc(Cl)cc32)C1=O (stereo partly drawn) [Example 29]
461 | CN1Cc2c(Cl)cc(Cl)cc2[C@H](c2cccc(N3CCCCC3=O)c2)C1 [Example 38, 1-[3-((S)-6,8-Dichloro-2-methyl-1,2,3,4-tetrahydroisoquinolin-4-yl)phenyl]-piperidin-2-one]
220 | CN1Cc2c(Cl)cc(Cl)cc2[C@H](c2ccccc2N2CCOC2=O)C1 [Example 46, 3-[2-((R)-6,8-Dichloro-2-methyl-1,2,3,4-tetrahydroisoquinolin-4-yl)phenyl]-oxazolidin-2-one]
129 | CN1Cc2c(Cl)cc(Cl)cc2[C@H](c2cccc(N3C(=O)CNC3=O)c2)C1 [Example 4, 3-[3-((S)-6,8-Dichloro-2-methyl-1,2,3,4-tetrahydroisoquinolin-4-yl)phenyl]-imidazolidine-2,4-dione hydrochloride]
82 | CN1Cc2c(Cl)cc(Cl)cc2[C@H](c2ccccc2N2CCCC2=O)C1 [Example 35, 1-[2-((R)-6,8-Dichloro-2-methyl-1,2,3,4-tetrahydroisoquinolin-4-yl)phenyl]-pyrrolidin-2-one trifluoroacetate]
49 | CN1Cc2c(Cl)cc(Cl)cc2[C@H](c2ccccc2N2C(=O)COC2=O)C1 [Example 43, 3-[2-((R)-6,8-Dichloro-2-methyl-1,2,3,4-tetrahydroisoquinolin-4-yl)phenyl]-oxazolidine-2,4-dione]
47 | CN1Cc2c(Cl)cc(Cl)cc2[C@H](c2cccc(N3C(=O)C=CC3=O)c2)C1 [Example 10]
39 | CN1Cc2c(Cl)cc(Cl)cc2[C@H](c2ccccc2N2C(=O)CCC2=O)C1 [Example 7, 1-[2-((R)-6,8-Dichloro-2-methyl-1,2,3,4-tetrahydroisoquinolin-4-yl)phenyl]-pyrrolidine-2,5-dione hydrochloride]
